# Laboratory results as given in patent publication US20250195412A1, “PHARMACEUTICAL FORMULATIONS OF R-KETAMINE” (priority 2022, published 2025).
# Several values for one entry are separate records, joined by “and”; a condition that tells them apart may be missing. Identical values can stand only once. Entries after “also recorded” stand apart in the source; their conditions may differ.
# What was measured:
# [1] = Citrate buffer: tonicity by freezing point depression; format: physicochemical
# Description: (§1) One finding from the previous Examples was that there is a range between pH 5 and 6 in which 60 mg/ml API can be dissolved. Strong precipitation of the free base only occurs above a pH of 5.9 according to the observation. Based on this observation, it was decided to investigate two compendial buffer systems (citrate and phosphate buffer) for their ability to hold 60 mg/ml of R-ketamine in solution and stabilize the formulation against pH shifts. Another change was that the pH adjustment was done with 0.15 N NaOH instead of 1 N NaOH in the following experiments. This change was underdone because there were concerns that the very alkaline microenvironment around the drops of sodium hydroxide solution would lead to the formation of flakes that were difficult to dissolve.
# (§2) The ingredients for a 20 mM buffer and the appropriate amount of R-ketamine HCl (60 mg/ml, equaling 52.2 mg/ml free base) were weighed together and diluted in water for injection. Subsequently, the pH was adjusted, e.g. to 5.2. After filling up to the target volume, the mixture was stirred for a defined time and a sample was obtained under filtration (0.22 μm). This sample was analyzed for content by HPLC and for tonicity by freezing point depression.
# [2] = Log P (general properties)
# [3] = Cosolvent screening: assay of filtered sample by HPLC; format: physicochemical
# Description: (§3) For cosolvent screening, a set of possible candidates was identified. Specifically, 5% sulfobutyl-ether-β-cyclodextrin (SBE7), polyethylene glycol 400 (PEG 400), glycerol, propylene glycol, and 5% polysorbate 80 were to be screened at pH 5 and 6. Unless otherwise specified, cosolvents were screened at 20% and 50% (m/V). As a control, the solubility of R-ketamine in water was studied at pH 5 and 6.
# (§4) The test solution consisting of water for injection. The respective cosolvent was prepared and the active substance was dissolved to a nominal concentration of 100 mg/ml (equaling 86.96 mg/ml free base). The pH was then adjusted to pH 5 with 1N NaOH and a sample was obtained under filtration (0.22 μm). Thereafter, the pH was further increased to pH 6 and another sample was taken (also filtered). Both samples were analyzed for assay and tonicity by HPLC and freezing point depression.
# (§5) • Batch size: 90 g/pH set at end of compounding (1N NaOH/1N HCl)
# [4] = Solubility profile in solvents
# [5] = pH 5.5
# [6] = Cyclodextrin inclusion: tonicity by freezing point depression; format: physicochemical
# Description: (§6) The effect of hydroxypropyl β-cyclodextrin (HPB) on the solubility of R-ketamine at different pH values was investigated. Varied factors were pH of the solution and the concentration of HPB. Response factors were tonicity, which was determined by freezing point depression, and API content, which was measured by HPLC, of a filtered (0.22 μm) solution.
# (§7) After dissolving the active ingredient (100 mg/ml, 86.96 mg/ml free base), a defined amount of HPB was added. After complete solution of the two components, the target pH was adjusted with sodium hydroxide solution (1 M). The resulting solution was filtered through a syringe filter (0.22 μm) and analyzed by HPLC and freezing point depression. A separate protocol was prepared for each individual experiment.
# [7] = pH dependence of solubility / precipitation of the free base in water; format: physicochemical
# Description: From pH 5.5, the free base consequently precipitates, if this is not prevented by the addition of suitable excipients.
# as §1
# The solubility of R-ketamine is strongly pH dependent. In the acidic pH range, the active ingredient is readily soluble, while precipitation occurs at pH values greater than 5.7-5.9. A careful choice of formulation parameters allows the requirements of the application route to be reconciled with the dissolution behavior of the active ingredient. The way in which the pH is adjusted also has a major influence. By using low-concentration alkalis, the formation of highly alkaline microenvironments around the dropping point could be avoided. This prevents the formation of active ingredient flocs that are difficult to dissolve again.
# [8] = Initial tests with maleic acid buffering: dissolution behaviour and pH; format: physicochemical
# Description: Due to its ability to act as a buffer in the acidic to neutral range, a 0.02 M aqueous maleic acid solution was proposed as the base formulation. The aim was to investigate the dissolving capacity for R-ketamine in the concentration range of 60, 80 and 100 mg/ml at pH 5.5 and 5.7 (after the feasibility test with a pH of 5.8 had to be considered as failed) and the stability of the formulations in a study for four weeks.
# In an initial feasibility test, the dissolution behaviour of R-ketamine was investigated in the presence of maleic acid. Pure water was used as a comparison. In an aqueous solution of 60 mg/ml R-ketamine without buffering, a pH of 4.65 was obtained. If the same amount of R-ketamine was dissolved in a 0.02 M maleic acid buffer adjusted to pH 5.75, the pH decreased to a value of 5.38.
# [9] = Cosolvent screening: tonicity by freezing point depression; format: physicochemical
# Description: as §3, §4, §5
# [10] = Orientative stability examination of phosphate-buffered formulation, room temperature storage; format: physicochemical; conditions: 60 mg/mL in phosphate buffer pH 5.8, room temperature, two weeks
# [11] = Hygroscopicity, DVS experiments; format: physicochemical; conditions: between 50% RH to 90% RH in DVS experiments
# [12] = Citrate buffer: content of filtered sample by HPLC, visual precipitation; format: physicochemical
# Description: as §1, §2
# [13] = Cyclodextrin inclusion: API content of filtered solution by HPLC; format: physicochemical; conditions: nominal 100 mg/ml (86.96 mg/ml free base)
# Description: as §6, §7
# [14] = Phosphate buffer: tonicity by freezing point depression; format: physicochemical
# Description: as §2
# (§8) Based on the previous results from the citrate buffer series experiment, the experiments with the phosphate buffer could be limited to pH 5.8. The nominal concentrations 60 and 70 mg/ml were investigated.
# (§9) The solution was prepared and tested as described for the citrate buffer.
# [15] = Phosphate buffer: content of filtered sample by HPLC, visual precipitation; format: physicochemical
# Description: as §2, §8, §9
# [16] = 60 mg/ml in 20 mM citrate buffer, pH 5.4
# [17] = 60 mg/ml in 20 mM citrate buffer, pH 5.6
# [18] = 60 mg/ml in 20 mM citrate buffer, pH 5.8
# [19] = Cyclodextrin (HPB) 20 %, pH 4.5
# [20] = Cyclodextrin (HPB) 20 %, pH 7.5
# [21] = 70 mg/ml (60.9 mg/ml free base) in citrate buffer, pH 5.8
# [22] = phosphate buffer pH 5.8, nominal 60 mg/ml (52.2 mg/ml free base)
# [23] = phosphate buffer pH 5.8, nominal 70 mg/ml (60.9 mg/ml free base)
smiles,measurement,setting,value
"CN[C@@]1(c2ccccc2Cl)CCCCC1=O [R-ketamine, (2R)-2-(2-chlorophenyl)-2-(methylamino)cyclohexan-1-one]",Tonicity,"[1]; 60 mg/ml in 20 mM citrate buffer, pH 5.2",534 mOsmol/kg
same,Tonicity,[1]; [16],540 mOsmol/kg
same,Tonicity,[1]; [17],546 mOsmol/kg
same,Tonicity,[1]; [18],561 mOsmol/kg
same,Tonicity,"[1]; 70 mg/ml in citrate buffer, pH 5.8",556 mOsmol/kg
same,logP,[2],2.18
same,Assay,"[3]; Glycerol 20%, pH 6.0",19.1 mg/mL
same,Assay,"[3]; Glycerol 50%, pH 6.0",20.2 mg/mL
same,Assay,"[3]; PEG 20%, pH 6.0",19.9 mg/mL
same,Assay,"[3]; PEG 50%, pH 6.0",21.6 mg/mL
same,Assay,"[3]; Propylene glycol 20%, pH 6.0",24.5 mg/mL
same,Assay,"[3]; Propylene glycol 50%, pH 6.0",46.5 mg/mL
same,Assay,"[3]; Tween 5%, pH 5.0",89.2 mg/mL
same,Assay,"[3]; Tween 5%, pH 6.0",18.8 mg/mL
same,Assay,"[3]; Water for injection, pH 5.0, nominal 100 mg/ml (86.96 mg/ml free base)",88.6 mg/mL
same,Assay,"[3]; Water for injection, pH 6.0",19.7 mg/mL
same,Solubility Classification (EP),[4]; 1-propanol,Sparingly soluble
same,solubility,"[4]; 1-propanol, organic solvent or mixture",13 to 15 mg/mL
same,Solubility Classification (EP),[4]; 2-propanol,Slightly soluble
same,solubility,"[4]; 2-propanol, organic solvent or mixture",~4 mg/mL
same,Solubility Classification (EP),"[4]; Acetone, acetonitrile, anisole, ethyl acetate, heptane, methyl ethyl ketone, methyl iso-butyl ketone, tetrahydrofuran, methyl tert-butyl ether",Very slightly soluble
same,Solubility Classification (EP),"[4]; DMSO, Ethanol",Sparingly soluble
same,solubility,"[4]; DMSO, ethanol, organic solvent or mixture",20 to 30 mg/mL
same,Solubility Classification (EP),[4]; Methanol,Soluble
same,Solubility Classification (EP),[4]; Water,Freely soluble
same,solubility,"[4]; methanol, organic solvent or mixture",50 to 100 mg/mL
same,solubility,[4]; organic solvent or mixture,< 1 mg/mL
same,solubility,[4]; water,> 140 mg/mL
same,solubility,"[4]; water, pH 4, water",> 140 mg/mL
same,"decrease of pH over the study, average",[5],0.2 pH units
same,four-week stability assay,[5],satisfactory stability
same,Tonicity,"[6]; Cyclodextrin (HPB) 0 %, pH 4.5",644 mOsmol
same,Tonicity,"[6]; Cyclodextrin (HPB) 0 %, pH 7.5",522 mOsmol
same,Tonicity,"[6]; Cyclodextrin (HPB) 10 %, pH 6",680 mOsmol and 683 mOsmol
same,Tonicity,[6]; [19],638 mOsmol
same,Tonicity,[6]; [20],546 mOsmol
same,pH from which the free base precipitates,"[7]; in water, without suitable excipients, Henderson-Hasselbalch, FIG. 1",≥ 5.5
same,pH above which precipitation of the free base occurs,[7]; observed in the experiments,> 5.9 and 5.7-5.9
same,API that can be dissolved,[7]; range between pH 5 and 6,60 mg/mL
same,pH after dissolving,[8]; 60 mg/ml in 0.02 M maleic acid buffer adjusted to pH 5.75,5.38
same,pH obtained,[8]; aqueous solution of 60 mg/ml R-ketamine without buffering,4.65
same,precipitation on raising the pH to 5.8,"[8]; maleic acid buffer, pH raised to 5.8 with 0.15 M NaOH",without precipitation
same,Tonicity,"[9]; Glycerol 20%, pH 6.0",1445 mOsmol
same,Tonicity,"[9]; PEG 20%, pH 6.0",695 mOsmol
same,Tonicity,"[9]; Tween 5%, pH 5.0",686 mOsmol
same,Tonicity,"[9]; Tween 5%, pH 6.0",602 mOsmol
same,Tonicity,"[9]; Water for injection, pH 5.0",651 mOsmol
same,Tonicity,"[9]; Water for injection, pH 6.0",568 mOsmol
same,shelf life / precipitation on storage,[10],fine crystalline precipitate was observed; also recorded: precipitation
same,Hygroscopicity,[11],"Not hygroscopic, no moisture uptake"
same,pKa,pKa (general properties),7.5
same,Assay,"[12]; 60 mg/ml (52.2 mg/ml free base) in 20 mM citrate buffer, pH 5.2",46.2 mg/mL
same,Assay,[12]; [16],46.1 mg/mL
same,Assay,[12]; [17],46.4 mg/mL
same,Assay,[12]; [18],47.2 mg/mL
same,visual precipitation,"[12]; 60 mg/ml in citrate buffer, pH 5.2-5.8",no precipitation could be detected visually
same,content found,"[12]; 60 mg/ml in citrate buffer, range of pH 5.2-5.8",about 46.5 mg/ml
same,Assay,[12]; [21],46.2 mg/mL
same,precipitation after pH adjustment,[12]; [21],precipitation was observed
same,Assay,"[13]; Cyclodextrin (HPB) 0 %, pH 4.5",88.9 mg/mL
same,Assay,"[13]; Cyclodextrin (HPB) 0 %, pH 7.5",0.9 mg/mL
same,Assay,"[13]; Cyclodextrin (HPB) 10 %, pH 6",26.8 mg/mL and 29.6 mg/mL
same,Assay,[13]; [19],93.9 mg/mL
same,Assay,[13]; [20],11.1 mg/mL
same,Tonicity,[14]; [22],476 mOsmol/kg
same,Tonicity,[14]; [23],545 mOsmol/kg
same,Assay,[15]; [22],51.2 mg/ml free base
same,Assay,[15]; [23],59.7 mg/ml free base
same,visible precipitation after pH adjustment and filtration,"[15]; phosphate buffer pH 5.8, nominal 60 and 70 mg/ml",no visible precipitation
